Results taken from ChEMBL document CHEMBL4715814, “Design, synthesis and biological activity evaluation of novel 4-subtituted 2-naphthamide derivatives as AcrB inhibitors” (2018).
Calls of active or inactive are those of the source. The calls are words filed in the database; no cut-off is given here.

Experiments:
Escherichia coli [1] = test: Potentiation of chloramphenicol-induced antibacterial activity against wild type Escherichia coli BW25113 assessed as fold reduction in chloramphenicol MIC at 128 ug/ml incubated for 18 hrs under aerobic condition by checkerboard titration assay relative to chloramphenicol MIC alone; type: functional; conditions: dose 128 µg/ml
Escherichia coli [2] = test: Potentiation of chloramphenicol-induced antibacterial activity against wild type Escherichia coli BW25113 assessed as fold reduction in chloramphenicol MIC at 256 ug/ml incubated for 18 hrs under aerobic condition by checkerboard titration assay relative to chloramphenicol MIC alone; type: functional; conditions: dose 256 µg/ml
Escherichia coli [3] = test: (§1) Antibacterial activity against Wild type Escherichia coli BW25113 assessed as inhibition of AcrB efflux pump by mesuring the glucose-induced nile red efflux at 200 uM preincubated with CCCP for 15 mins followed by compound addition after 15 mins nile red added and incubated for 3 hrs in shaker by fluorimetric analysis; type: functional, organism-based; conditions: time 195.0 min
Cell membrane [4] = test: Induction of outer membrane permeabilization in wild type Escherichia coli BW25113 assessed as increase in nitrocefin hydrolysis at 512 ug/ml measured for 30 mins in presence of CCCP by spectrophotometry analysis; type: subcellular; conditions: dose 512.0 µg/ml
Escherichia coli [5] = test: Potentiation of TPP-induced antibacterial activity against AcrB deficient Escherichia coli BW25113 assessed as TPP MIC at 128 ug/ml incubated for 18 hrs under aerobic condition by checkerboard titration assay (reference value: 256 ug/ml); type: functional; conditions: dose 128 µg/ml
Escherichia coli [6] = test: Potentiation of chloramphenicol-induced antibacterial activity against AcrB deficient Escherichia coli BW25113 assessed as chloramphenicol MIC at 128 ug/ml incubated for 18 hrs under aerobic condition by checkerboard titration assay (reference value: 2 ug/ml); type: functional; conditions: dose 128 µg/ml
Escherichia coli [7] = test: Potentiation of erythromycin-induced antibacterial activity against AcrB deficient Escherichia coli BW25113 assessed as erythromycin MIC at 128 ug/ml incubated for 18 hrs under aerobic condition by checkerboard titration assay (reference value: 32 ug/ml); type: functional; conditions: dose 128 µg/ml
Escherichia coli [8] = test: Potentiation of TPP-induced antibacterial activity against wild type Escherichia coli BW25113 assessed as TPP MIC at 128 ug/ml incubated for 18 hrs under aerobic condition by checkerboard titration assay (reference value: 1024 ug/ml); type: functional; conditions: dose 128 µg/ml
Escherichia coli [9] = test: Potentiation of chloramphenicol-induced antibacterial activity against wild type Escherichia coli BW25113 assessed as chloramphenicol MIC at 128 ug/ml incubated for 18 hrs under aerobic condition by checkerboard titration assay (reference value: 16 ug/ml); type: functional; conditions: dose 128 µg/ml
Escherichia coli [10] = test: Potentiation of rifampicin-induced antibacterial activity against wild type Escherichia coli BW25113 assessed as rifampicin MIC at 128 ug/ml incubated for 18 hrs under aerobic condition by checkerboard titration assay (reference value: 16 ug/ml); type: functional; conditions: dose 128 µg/ml
Cell membrane [11] = test: Disruption of inner membrane potential in wild type Escherichia coli BW25113 at 512 ug/ml preincubated for 10 mins followed by glucose stimulation and CCCP addition by DiOC2 probe based fluorimetric analysis; type: subcellular; conditions: dose 512.0 µg/ml
Escherichia coli [12] = test: Potentiation of erythromycin-induced antibacterial activity against wild type Escherichia coli BW25113 assessed as erythromycin MIC at 128 ug/ml incubated for 18 hrs under aerobic condition by checkerboard titration assay (reference value: 128 ug/ml); type: functional; conditions: dose 128 µg/ml
Escherichia coli [13] = test: Potentiation of erythromycin-induced antibacterial activity against wild type Escherichia coli BW25113 assessed as fold reduction in erythromycin MIC at 128 ug/ml incubated for 18 hrs under aerobic condition by checkerboard titration assay relative to erythromycin MIC alone; type: functional; conditions: dose 128 µg/ml
Escherichia coli [14] = test: as §1, with “500” for “200”; type: functional, organism-based; conditions: time 195.0 min
Escherichia coli [15] = test: Potentiation of chloramphenicol-induced antibacterial activity against AcrB deficient Escherichia coli BW25113 assessed as chloramphenicol MIC at 256 ug/ml incubated for 18 hrs under aerobic condition by checkerboard titration assay (reference value: 2 ug/ml); type: functional; conditions: dose 256 µg/ml
Escherichia coli [16] = test: Potentiation of TPP-induced antibacterial activity against AcrB deficient Escherichia coli BW25113 assessed as TPP MIC at 256 ug/ml incubated for 18 hrs under aerobic condition by checkerboard titration assay (reference value: 256 ug/ml); type: functional; conditions: dose 256 µg/ml
Escherichia coli [17] = test: Potentiation of erythromycin-induced antibacterial activity against AcrB deficient Escherichia coli BW25113 assessed as erythromycin MIC at 256 ug/ml incubated for 18 hrs under aerobic condition by checkerboard titration assay (reference value: 32 ug/ml); type: functional; conditions: dose 256 µg/ml
Escherichia coli [18] = test: Potentiation of TPP-induced antibacterial activity against wild type Escherichia coli BW25113 assessed as TPP MIC at 256 ug/ml incubated for 18 hrs under aerobic condition by checkerboard titration assay (reference value: 1024 ug/ml); type: functional; conditions: dose 256 µg/ml
Escherichia coli [19] = test: Potentiation of chloramphenicol-induced antibacterial activity against wild type Escherichia coli BW25113 assessed as chloramphenicol MIC at 256 ug/ml incubated for 18 hrs under aerobic condition by checkerboard titration assay (reference value: 16 ug/ml); type: functional; conditions: dose 256 µg/ml
Escherichia coli [20] = test: Potentiation of rifampicin-induced antibacterial activity against wild type Escherichia coli BW25113 assessed as rifampicin MIC at 256 ug/ml incubated for 18 hrs under aerobic condition by checkerboard titration assay (reference value: 16 ug/ml); type: functional; conditions: dose 256 µg/ml
Escherichia coli [21] = test: Potentiation of erythromycin-induced antibacterial activity against wild type Escherichia coli BW25113 assessed as erythromycin MIC at 256 ug/ml incubated for 18 hrs under aerobic condition by checkerboard titration assay (reference value: 128 ug/ml); type: functional; conditions: dose 256 µg/ml
Escherichia coli [22] = test: as §1, with “100” for “200”; type: functional, organism-based; conditions: time 195.0 min

| Activity (Cell membrane [4]) | MIC (Escherichia coli [8]) | MIC (Escherichia coli [9]) | MIC (Escherichia coli [10]) | Activity (Cell membrane [11]) | MIC (Escherichia coli [12]) | MIC (Escherichia coli [15]) | MIC (Escherichia coli [16]) | MIC (Escherichia coli [17]) | MIC (Escherichia coli [18]) | MIC (Escherichia coli [19]) | MIC (Escherichia coli [20]) | MIC (Escherichia coli [21]) | SMILES | fold change (FC) (Escherichia coli [2]) | Activity (Escherichia coli [14]) | also measured |
| --- | --- | --- | --- | --- | --- | --- | --- | --- | --- | --- | --- | --- | --- | --- | --- | --- |
| inactive | 1020 µg/mL | 2 µg/mL | 16 µg/mL | inactive | 16 µg/mL |  |  |  |  |  |  |  | CC(C)CCOc1cc(C(=O)NC2CCCCC2)cc2ccccc12 | 8 |  | fold change (FC) (Escherichia coli [1]): 8; Activity (Escherichia coli [3]): Active; MIC (Escherichia coli [5]): 256 µg/mL; MIC (Escherichia coli [6]): 2 µg/mL; MIC (Escherichia coli [7]): 32 µg/mL; fold change (FC) (Escherichia coli [13]): 8 |
| inactive | 1020 µg/mL | 16 µg/mL | 16 µg/mL | inactive | 128 µg/mL | 2 µg/mL | 256 µg/mL | 32 µg/mL | 256 µg/mL | 16 µg/mL | 16 µg/mL | 128 µg/mL | NC(=O)c1cc(OCCSc2nc3ccccc3[nH]2)c2ccccc2c1 |  | Active |  |
| inactive | 1020 µg/mL | 16 µg/mL | 16 µg/mL | Active | 128 µg/mL | 2 µg/mL |  |  | 256 µg/mL | 2 µg/mL | 4 µg/mL | 128 µg/mL | O=C(NCc1ccco1)c1cc(OCc2ccccc2)c2ccccc2c1 | 8 |  | Activity (Escherichia coli [22]): Active |
| inactive | 1020 µg/mL | 4 µg/mL | 16 µg/mL | Active | 128 µg/mL | 2 µg/mL | 256 µg/mL | 32 µg/mL | 1020 µg/mL | 2 µg/mL | 16 µg/mL | 128 µg/mL | CC(C)CCOc1cc(C(=O)NCc2ccccc2Cl)cc2ccccc12 | 8 | Active | fold change (FC) (Escherichia coli [1]): 4; fold change (FC) (Escherichia coli [13]): 4 |
|  | 1020 µg/mL | 16 µg/mL | 16 µg/mL |  | 64 µg/mL | 2 µg/mL | 256 µg/mL | 32 µg/mL | 1020 µg/mL | 16 µg/mL | 16 µg/mL | 32 µg/mL | COc1ccc(CNC(=O)c2cc(OCCC(C)C)c3ccccc3c2)cc1 |  | inactive |  |
| inactive | 1020 µg/mL | 8 µg/mL | 16 µg/mL | Active | 64 µg/mL | 2 µg/mL | 256 µg/mL | 32 µg/mL | 1020 µg/mL | 4 µg/mL | 16 µg/mL | 32 µg/mL | CC(C)CCOc1cc(C(=O)NCc2ccco2)cc2ccccc12 |  | Active |  |
| inactive | 1020 µg/mL | 8 µg/mL | 16 µg/mL |  | 64 µg/mL | 1 µg/mL | 256 µg/mL | 32 µg/mL | 1020 µg/mL | 4 µg/mL | 8 µg/mL | 32 µg/mL | CC(C)CCOc1cc(C(=O)NCc2ccccc2)cc2ccccc12 |  |  |  |
| inactive | 1020 µg/mL | 16 µg/mL | 16 µg/mL | Active | 128 µg/mL | 2 µg/mL |  |  | 1020 µg/mL | 4 µg/mL | 8 µg/mL | 128 µg/mL | CCCNC(=O)c1cc(OCc2ccccc2)c2ccccc2c1 |  |  |  |
